Tested on: psoriasis
Experiment: Treatment of an adult with psoriasis with NGNA
Format: in vivo, human
Details: compared to previous treatments
Procedure: Example 2. An adult with psoriasis was treated with 5 mg NGNA per day administered sublingually. Administration caused symptoms associated with the psoriasis including redness, scaling spots, itching, burning and soreness to be reduced as compared to previous treatments.
Example 3. An adult with psoriasis was treated with 5 g NGNA per day administered orally. Administration caused symptoms associated with the psoriasis including redness, scaling spots, itching, burning and soreness to be reduced as compared to previous treatments.
Example 4. An adult with psoriasis was treated with NGNA supplied in a hot water bath.
Example 5. An adult with psoriasis was treated with a dermal spray solution of NGNA in water.

Measured: symptoms associated with the psoriasis including redness, scaling spots, itching, burning and soreness

O=C(CO)N[C@H]1[C@H]([C@H](O)[C@H](O)CO)O[C@](O)(C(=O)O)C[C@@H]1O [NGNA, n-glycolylneuraminic acid]
reduced: 5 mg NGNA per day sublingually | 5 g NGNA per day orally | NGNA supplied in a hot water bath | dermal spray solution of NGNA in water
